Values quoted from earlier work, collected in US12427126B2, “Niclosamide formulations and methods of use” (Florida State University Research Foundation, Inc., priority 2020, dated 2025).

Key:
[1] = administered orally

- solubility: low solubility
- systemic bioavailability [1]: low systemic bioavailability
Compound: O=C(Nc1ccc([N+](=O)[O-])cc1Cl)c1cc(Cl)ccc1O [Niclosamide]
